Test results: patent US20260098008A1, “COVALENT, CHEMOGENETIC ACTIVATORS FOR K2P POTASSIUM CHANNELS AND USES THEREOF” (THE REGENTS OF THE UNIVERSITY OF CALIFORNIA, priority 2022, published 2026)

Target: T1, K2P2.1 (TREK-1) (Mus musculus, UniProt P97438)
T1 construct: expressed in transfected cells; host or cells: Xenopus laevis oocytes injected with mRNA (pGEMHE/pMO vector)
T1 sequence (P97438 1-411 isoform P97438-2): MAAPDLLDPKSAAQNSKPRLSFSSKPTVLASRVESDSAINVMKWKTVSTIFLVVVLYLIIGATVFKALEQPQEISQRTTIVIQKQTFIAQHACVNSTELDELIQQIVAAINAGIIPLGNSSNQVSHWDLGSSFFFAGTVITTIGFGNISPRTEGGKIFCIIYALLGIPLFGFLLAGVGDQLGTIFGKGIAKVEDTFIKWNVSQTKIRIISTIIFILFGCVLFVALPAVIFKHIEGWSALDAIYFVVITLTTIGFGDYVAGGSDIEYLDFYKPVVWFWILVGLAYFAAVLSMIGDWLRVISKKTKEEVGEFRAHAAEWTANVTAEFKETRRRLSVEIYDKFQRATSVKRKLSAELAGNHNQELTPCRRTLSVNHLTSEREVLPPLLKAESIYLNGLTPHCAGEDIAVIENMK
Test: Two-electrode voltage clamp (TEVC) in Xenopus oocytes
Format: cell-based
Details: for TREK-1 fold-activation: 20 uM, oocytes expressing TREK1; for TREK-1 activity class: Fold-activation at 20 uM in oocytes
Text: Mouse K2P2.1 (TREK-1) (Genbank accession number: NP_034737.2), mouse K2P10.1 (TREK-2) (NM_001316665.1), mouse K2P4.1 (TRAAK) (NM_008431.3), human K2P4.1 (TRAAK) (NM_033310.2) and mouse K2P18.1(TRESK) (NM_207261.3) were used for this study. Point mutations were introduced by site-directed mutagenesis using custom primers and confirmed by sequencing before use. For studies using Xenopus oocytes, K2P channels were subcloned into a previously reported pGEMHE/pMO vector (46). For expression in HEK293 cells, mouse K2P2.1 (TREK-1) and mutants were expressed from a previously described pIRES2-EGFP vector in HEK293 cells (46,47). K2P2.1 (TREK-1) tandems were constructed by connecting the open reading frames for the individual subunits with a linker encoding the […] (SEQ ID NO: 19) sequence. Tandems used for HEK293 cells included an N-terminal HA tag ([…] (SEQ ID NO: 20)) on the first subunit.
Xenopus laevis oocytes were harvested according to UCSF IACUC Protocol AN129690 and digested using collagenase (Worthington Biochemical Corporation, #LS004183, 0.8-1.0 mg/mL) in Ca^21-free ND96 (96 mM NaCl, 2 mM KCl, 3.8 mM MgCl2, 5 mM HEPES pH 7.4) immediately post-harvest, as previously reported (31,33). Oocytes were maintained at 18° C. in ND96 (96 mM NaCl, 2 mM KCl, 1.8 mM CaCl2, 2 mM MgCl2, 5 mM HEPES pH 7.4) supplemented with antibiotics (100 units mL^−1 penicillin, 100 μg mL^−1 streptomycin, 50 μg mL^−1 gentimycin) and used for experiments within one week of harvest.
Defolliculated stage V-VI oocytes were microinjected with 0.5-36 ng mRNA and currents were recorded within 16-48 h hours of injection.
For recordings, oocytes were impaled with borosilicate recording microelectrodes (0.4-2.0 MΩ resistance) backfilled with 3 M KCl and were subjected to constant perfusion of ND96 at a rate of 3 ml min^−1. Recording solutions containing K2P activators were prepared immediately prior to use from DMSO stocks (20-100 mM), with final DMSO concentrations of 0.1%. Currents were evoked from a −80 mV holding potential followed by a 300 ms ramp from −150 mV to +50 mV. Data were recorded using a GeneClamp 500B amplifier (MDS Analytical Technologies) controlled by pCLAMP8 software (Molecular Devices), and digitized at 1 kHz using Digidata 1332 Å digitizer (MDS Analytical Technologies). For each recording, control solution (ND96) was perfused over a single oocyte until current was stable before switching to solutions containing the test compounds at various concentrations. Representative traces and dose response plots were generated in GraphPad Prism 9.

SMILES | TREK-1 fold-activation [fold] | TREK-1 activity class
C/C=C/C(=O)Nc1ccc(C(=O)NCc2ccc(Cl)cc2Cl)cc1 [Entry 4] | 1.2 | –
C#CCNC(=O)CC(=C)C(=O)Nc1ccc(C(=O)NCc2ccc(Cl)cc2Cl)cc1 [Entry 5] | 7.0 | +++ (>5 fold)
C=C(CC(=O)O)C(=O)Nc1ccc(C(=O)NCc2ccc(Cl)cc2Cl)cc1 [Entry 6] | 1.7 to 2.5 | + (1.5-2.5 fold)
O=C(/C=C/C(F)(F)F)Nc1ccc(C(=O)NCc2ccc(Cl)cc2Cl)cc1 [Entry 7] | 1.0 | –
N#CCC(=O)Nc1ccc(C(=O)NCc2ccc(Cl)cc2Cl)cc1 [Entry 8] | 3.6 | ++ (2.5-5 fold)
C#CCN(C(=O)C=C)c1ccc(C(=O)NCc2ccc(Cl)cc2Cl)cc1 [Entry 9] | 1.0 | –
C=CC(=O)Nc1cccc(C(=O)NCc2ccc(Cl)cc2Cl)c1 [Entry 10] | 1.2 | –
C=CS(=O)(=O)Nc1ccc(C(=O)NCc2ccc(Cl)cc2Cl)cc1 [Entry 11] | 1.3 | –
O=C(NCc1ccc(Cl)cc1Cl)c1cccc(CB(O)O)c1 [Entry 23] | 1.0 | –
O=C(NCc1ccc(Cl)cc1Cl)c1cccc(B(O)O)c1 [Entry 24] | 1.3 | + (1.5-2.5 fold)
O=C(NCc1ccc(Cl)cc1Cl)c1ccc(CB(O)O)cc1 [Entry 25] | 1.5 | + (1.5-2.5 fold)
CC1(C)OB(Cc2ccc(C(=O)NCc3ccc(Cl)cc3Cl)cc2)OC1(C)C [Entry 26] | 1.6 | + (1.5-2.5 fold)
O=C(NCc1ccc(Cl)cc1Cl)c1ccc(NCC2CO2)cc1 (stereo not shown) [Entry 27] | 2.5 | ++ (2.5-5 fold)
O=C(NCc1ccc(Cl)cc1Cl)c1ccc(NC(=O)C(F)(F)F)cc1 [Entry 28] | 3.3 | ++ (2.5-5 fold)
CN(Cc1ccc(Cl)cc1Cl)C(=O)c1ccc(NS(C)(=O)=O)cc1 [Entry 30] | 1.0 | –
CC(NC(=O)c1ccc(NC(N)=O)cc1)c1ccc(Cl)cc1Cl (stereo not shown) [Entry 31] | 1.3 | –
CC(NC(=O)c1ccc(NS(C)(=O)=O)cc1)c1ccc(Cl)cc1Cl (stereo not shown) [Entry 32] | 1.2 | –
CS(=O)(=O)Nc1cccc(C(=O)NCc2ccc(Cl)cc2Cl)c1 [Entry 33] | 2.2 | ++ (2.5-5 fold)
CC(NC(=O)c1ccc(NC(=O)NC(=O)C(Cl)(Cl)Cl)cc1)c1ccc(Cl)cc1Cl (stereo not shown) [Entry 34] | 1.2 | –
NC(=O)Nc1ccc(C(=O)NCc2ccc(Cl)cc2Cl)cc1 [Entry 35] | 6.4 | +++ (>5 fold)
CNS(=O)(=O)c1ccc(C(=O)NCc2ccc(Cl)cc2Cl)cc1 [Entry 36] | 3 | ++ (2.5-5 fold)
CNS(=O)(=O)c1ccc(C(=O)NCc2ccc(Cl)c(Cl)c2)cc1 [Entry 37] | 1.5 | + (1.5-2.5 fold)
CS(=O)(=O)Nc1ccc(C(=O)NCc2ccc(Cl)c(Cl)c2)cc1 [Entry 38] | 4.8 | +++ (>5 fold)
CS(=O)(=O)Nc1ccc(C(=O)NCc2ccc(Cl)c(F)c2)cc1 [Entry 39] | 1.5 | + (1.5-2.5 fold)
Cc1cc(Cl)cc(Cl)c1CNC(=O)c1ccc(NS(C)(=O)=O)cc1 [Entry 40] | 1.1 | –
CS(=O)(=O)Nc1ccc(C(=O)NCc2ccc(Br)cc2Cl)cc1 [Entry 41] | 3.3 | ++ (2.5-5 fold)
CS(=O)(=O)Nc1ncc(C(=O)NCc2ccc(Cl)cc2Cl)cn1 [Entry 42] | 1.4 | + (1.5-2.5 fold)
